Converted amounts (≈) assume the structure as drawn.
Columns and labels:
[1] = test system: bacterial protein synthesis (aminoacylation/translation system); test: aminoacylation/translation (A/T) assay; format: biochemical; details: for IC50: A/T assay, Table 1, read-out: IC50
[2] = test system: E. faecalis; test: Broth microdilution MIC testing; format: cell-based, Enterococcus faecalis; details: for MIC: Enterococcus faecalis, read-out: MIC E. fae; for MIC E. fae: E. faecalis
[3] = test system: M. catarrhalis; test: Broth microdilution MIC testing; format: cell-based, Moraxella catarrhalis; details: for MIC: Moraxella catarrhalis
[4] = test system: H. influenzae; test: Broth microdilution MIC testing; format: cell-based, Haemophilus influenzae; details: for MIC: Haemophilus influenzae, read-out: MIC H. flu; for MIC H. flu: H. influenzae
[5] = test system: S. pneumoniae; test: Broth microdilution MIC testing; format: cell-based, Streptococcus pneumoniae; details: for MIC: Streptococcus pneumoniae, read-out: MIC S. pneumo; for MIC S. pneumo: S. pneumoniae
[6] = test system: S. aureus; test: Broth microdilution MIC testing; format: cell-based, Staphylococcus aureus; details: for MIC: Staphylococcus aureus, read-out: MIC S. aureus
[7] = test system: E. coli tolC mutants; test: Broth microdilution MIC testing; format: cell-based, Escherichia coli; details: for MIC: Escherichia coli, read-out: MIC E. coli tolC; for MIC E. coli tolC: E. coli tolC mutants
[8] = test system: E. coli modified with PMBN; test: Broth microdilution MIC testing; format: cell-based, Escherichia coli; details: for MIC: Escherichia coli, read-out: MIC E. coli +PMBP; for MIC E. coli +PMBP: E. coli modified with PMBN
[9] = test system: panel of bacteria; test: Antibacterial activity against the panel of bacteria (MIC, overall); format: cell-based; details: Table 2; also: key: +: poor; ++: moderate; +++: good antibacterial activity

Structure (SMILES) | IC50 [1] | fold reduction of potency/biochemical activity in the A/T assay ([1]; relative to 321521) | MIC [2] | MIC [3] | MIC [4] | MIC [5] | MIC [6] | MIC [7] | MIC [8] | MIC E. fae [2] | MIC M. cat [3] | MIC H. flu [4] | MIC S. pneumo [5] | MIC S. aureus [6] | MIC E. coli tolC [7] | MIC E. coli +PMBP [8] | MIC (antibacterial activity grade) [9]
O=c1[nH]c(-c2cnccn2)nc2c1CN(Cc1ccc(Cl)cc1)CC2 [Compound 323354] | 21600 nM | tenfold | > 128 µg/mL | 16 µg/mL (≈ 45.2 µM) | > 128 µg/mL | > 128 µg/mL | > 128 µg/mL | > 128 µg/mL | > 128 µg/mL |  |  |  |  |  |  |  | 
CC(=O)Nc1ccc(CN2CCc3nc(-c4ccccn4)[nH]c(=O)c3C2)cc1 [Compound 323222] | > 300000 nM |  |  |  |  |  |  |  |  | > 128 µg/mL | > 128 µg/mL | > 128 µg/mL | > 128 µg/mL | > 128 µg/mL | > 128 µg/mL | > 128 µg/mL | 
O=c1[nH]c(-c2ccccn2)nc2c1CN(Cc1cc(F)ccc1F)CC2 [Compound 323228] | 300 nM |  |  |  |  |  |  |  |  | 64 µg/mL (≈ 181 µM) | 0.5 µg/mL (≈ 1.41 µM) | 4 µg/mL (≈ 11.3 µM) | 8 µg/mL (≈ 22.6 µM) |  | 16 µg/mL (≈ 45.2 µM) | 16 µg/mL (≈ 45.2 µM) | ++
Oc1ccccc1CN1CCc2nc(-c3ccccn3)nc(O)c2C1 [Compound 321522] | 2600 nM |  | 16 µg/mL (≈ 47.8 µM) | 1 µg/mL (≈ 2.99 µM) | 2 µg/mL (≈ 5.98 µM) | 16 µg/mL (≈ 47.8 µM) | 128 µg/mL (≈ 383 µM) | 32 µg/mL (≈ 95.7 µM) | 64 µg/mL (≈ 191 µM) |  |  |  |  |  |  |  | 
COc1ccc(CN2CCc3nc(-c4ccccn4)[nH]c(=O)c3C2)cc1O [Compound 323217] | 4800 nM |  |  |  |  |  |  |  |  | > 128 µg/mL | 32 µg/mL (≈ 87.8 µM) | 32 µg/mL (≈ 87.8 µM) | > 128 µg/mL | > 128 µg/mL | > 128 µg/mL | > 128 µg/mL | 
COc1ccc(CN2CCc3nc(-c4ccccn4)[nH]c(=O)c3C2)c(C)c1C [Compound 323202] | 4300 nM |  |  |  |  |  |  |  |  | 32 µg/mL (≈ 85 µM) | 0.25 µg/mL (≈ 0.664 µM) | 4 µg/mL (≈ 10.6 µM) | 4 µg/mL (≈ 10.6 µM) | 16 µg/mL (≈ 42.5 µM) | 8 µg/mL (≈ 21.3 µM) | 32 µg/mL (≈ 85 µM) | 
O=c1[nH]c(-c2ccccn2)nc2c1CN(Cc1ccccc1Cl)CC2 [Compound 323219] | 3000 nM |  |  |  |  |  |  |  |  | 32 µg/mL (≈ 90.7 µM) | ≤0.12 µg/mL | 4 µg/mL (≈ 11.3 µM) | 4 µg/mL (≈ 11.3 µM) | 16 µg/mL (≈ 45.3 µM) | 8 µg/mL (≈ 22.7 µM) | 16 µg/mL (≈ 45.3 µM) | 
COc1cc(CN2CCc3nc(-c4ccccn4)[nH]c(=O)c3C2)ccc1OCCO [Compound 323214] | > 300000 nM |  |  |  |  |  |  |  |  | > 128 µg/mL | > 128 µg/mL | > 128 µg/mL | > 128 µg/mL | > 128 µg/mL | > 128 µg/mL | > 128 µg/mL | 
COc1cc(CN2CCc3nc(-c4ccccn4)[nH]c(=O)c3C2)ccc1O [Compound 323215] | 2100 nM |  |  |  |  |  |  |  |  | > 128 µg/mL | 128 µg/mL (≈ 351 µM) | 64 µg/mL (≈ 176 µM) | > 128 µg/mL | > 128 µg/mL | > 128 µg/mL | > 128 µg/mL | 
CC(=O)Oc1ccc(CN2CCc3nc(-c4ccccn4)[nH]c(=O)c3C2)cc1 [Compound 323238] | 2100 nM |  |  |  |  |  |  |  |  | > 128 µg/mL | 16 µg/mL (≈ 42.5 µM) | 32 µg/mL (≈ 85 µM) | > 128 µg/mL | > 128 µg/mL | > 128 µg/mL | > 128 µg/mL | 
